According to patent US7179814B2, “Agents for controlling plant pests” (priority 1998, dated 2007):
Like-named read-outs stand apart in the source and are kept apart here.

Columns and labels:
Format in all cases: in vivo
[1] = system: green rice leaf hopper (Nephotettix cincticeps); experiment: Nephotettix test (rice seedling dip)
Method: (§1) To produce a suitable preparation of active compound, 1 part by weight of an active compound or an active compound combination is mixed with the stated amounts of solvent and emulsifier, and the concentrate is diluted with water to the desired concentration.
Rice seedlings (Oryza sativa) are treated by being dipped into the active compound preparation of the desired concentration and are populated with the green rice leaf hopper (Nephotettix cincticeps) while the leaves are still moist.
After the desired period of time, the kill in % is determined. 100% means that all the leaf hoppers have been killed; 0% means that none of the leaf hoppers have been killed.

[2] = system: Phaedon cochleariae larvae; experiment: Critical concentration test/root-systemic action, Phaedon cochleariae; conditions: 72 h, root-systemic, 3 days after infestation, read-out: Kill in %
Method: To produce a suitable preparation of active compound, 1 part by weight of the active compound or the active compound mixture is mixed with the stated amounts of solvent and emulsifier, and the concentrate is diluted with water to the desired concentration.
The active compound preparation is mixed intimately with soil. Here, the concentration of the active compound in the preparation is almost irrelevant; only the amount by weight of active compound or active compound mixture per volume unit of soil, which is stated in ppm (mg/l), matters.
Soil is filled into 250 ml pots and these are planted with cabbage (Brassica oleracea). The active compound or the active compound combination can thus be taken up by the plant roots from the soil and transported into the leaves.
After 7 days, the leaves are populated with the abovementioned test animals. After a further 3 days, the kill in % is determined. 100% means that all test insects have been killed; 0% means that the number of insects which are still alive is the same as in the untreated control.

Phytophthora infestans = conditions: single active compound
Sphaerotheca fuliginea = experiment: Sphaerotheca test (cucumber)/protective; conditions: 10 g/ha, single active compound, 10 days after inoculation
Method: as §1, with “of” for “of an”, “or” for “or an”, “desired concentration, or a commercial formulation of active compound or active compound combination is diluted with water to the desired” for “desired”
To test for protective activity, young plants are sprayed with the commercial active compound preparation at the stated application rate. After the spray coating has dried on, the plants are inoculated with an aqueous spore suspension of Sphaerotheca fuliginea. The plants are then placed in a greenhouse at approximately 23° C. and a relative atmospheric humidity of approximately 70%.
Evaluation is carried out 10 days after the inoculation. 0% means an efficacy which corresponds to that of the control, whereas an efficacy of 100% means that no infection is observed.

[3] = system: Diabrotica balteata - larvae in the soil; experiment: Critical concentration test/soil insects, Diabrotica balteata (Example Q); conditions: 1.25 ppm in soil; efficacy calculated from number of emerged maize plants
Method: To produce a suitable preparation of active compound, 1 part by weight of active compound is mixed with the stated amount of solvent, the stated amount of emulsifier is added and the concentrate is diluted with water to the desired concentration. Here, the concentration of the active compound in the preparation is almost irrelevant; only the amount by weight of active compound per volume unit of soil, which is stated in ppm (mg/l), matters. The soil is filled into 0.5 l pots and these are allowed to stand at 20° C.
Immediately after preparation, 5 maize corns are placed into each pot. After 3 days, the test insects are placed into the treated soil. After a further 7 days, the efficacy is determined. The efficacy is calculated from the number of maize plants which have emerged.

N#C/N=C1/SCCN1Cc1ccc(Cl)nc1 [formula (I)]
Kill in % ([1]; concentration 0.000032 %): 0% | Kill in % ([1]; concentration 0.00016 %): 35% | pest or weed control at 2.5 ppm ([2]; 2.50 ppm in soil): 0% | pest or weed control at 5 ppm ([2]; 5.00 ppm in soil): 80% | pest or weed control at 10 ppm ([2]; 10.00 ppm in soil): 95% | Efficacy in % (Phytophthora infestans; 10 g/ha): 0% | Efficacy in % (Phytophthora infestans; 50 g/ha): 11% | Efficacy in % (Phytophthora infestans; 500 g/ha, 3 days after inoculation): 46% | Efficacy in % (Sphaerotheca fuliginea): 0% | Kill in % at active compound concentrations in ppm [3]: 1.25 ppm = 50%
